Assay results reported in US20010033827A1, “Inhibition of mucin release from airway goblet cells by polycationic peptides” (priority 1999, published 2001).

Legend:
[1] = system: SO2-induced goblet cell metaplasia; experiment: SO2-induced goblet cell metaplasia in rats (inhaled peptide, PAS staining); format: in vivo, Sprague-Dawley rats; settings: rat, inhaled 100 μl of 50, 500 or 5,000 μM once a day for five days, 150 ppm SO2
Description: To examine the effects of PLL or PLA in vivo, the effect of PLL or PLA on goblet cell metaplasia in rats was determined. Exposure of rats to SO2 was carried out essentially according to the method described in Kase et al, 1982, Arzneim-Forsch Drug Research 32:368-373. Eight to ten week-old male Sprague-Dawley rats were placed in a polyacrylic chamber (100 cm×60 cm×25 cm) and exposed to SO2 for three weeks, three hours per day, five days per week. The SO2 gas was generated from a solution containing 10% (W/V) sodium metabisulfite by aerosolization using an ultrasonic humidifier (Samsung Electronic Co., Korea). Concentrations of the generated SO2 gas were monitored before and after the exposure using a SO2 detector kit (Gastec Co., Japan), which has a detection range from 20 to 3600 ppm of SO2. The concentration of the SO2 gas inside the chamber was maintained at 150 ppm during all of the exposure periods.
PLA (average MW 10,800) was prepared in phosphate buffered saline (PBS), pH 7.2, in various concentrations. Following treatment of the animals with SO2 for 2 weeks, animals were treated with both S and PLA during a third week. A 100 μl aliquot of one of the PLA solutions was administered to each rat using an inhaler (PAPI master, Stamberg, Germany), once a day for five consecutive days, during the period immediately following the two week SO2 treatment period. […]

[2] = system: hamster tracheal surface epithelial (HTSE) cells; experiment: Mucin release from cultured airway goblet cells (3H-glucosamine-labelled HTSE cell culture); format: cell-based, Golden Syrian hamsters; settings: for effect on mucin release/secretion (dose dependence): varying concentrations; for effect on mucin release/secretion (dose dependence) / "inhibition" of released mucins: 30 min chase, HTSE cells; for inhibitory effect on mucin release after LMWH pretreatment: 10^-5 M peptide, pretreatment with 2×10^-5 M LMWH for 5 min; for "inhibition" of released mucins / effect on mucin release, column-purified versus not column purified: 10^-5 M; for effect on mucin release, column-purified versus not column purified: unacetylated peptide
Description: The effects of poly-L-arginine (PLA) and poly-L-lysine (PLL) on mucin release from cultured airway goblet cells were evaluated. Tracheas obtained from 7-8 week old male Golden Syrian hamsters (Harlan Sprague Dawley, Indianapolis, Ind.) were used to establish a hamster tracheal surface epithelial, (HTSE) cell culture. HTSE cells were harvested and cultured on a thick collagen gel as described in Kim et al., 1989, Exp. Lung Res. 15: 299-314. Mucins were metabolically radiolabeled by incubating confluent cultures (24 well plate, 5×10^5 cells/well) with 0.2 ml/well of a “complete” medium containing 10 μCi/ml of ^3H-glucosamine for 24 hours as described in Kim et al., 1989, Am. J. Resp. Cell Mol. Biol. 1: 137-143. The “complete” medium was prepared by supplementing a mixture of Medium 199/Dulbecco's modified Eagle's medium (DME) (1:1) with insulin (5 μg/ml), transferrin (5 μg/ml), epidermal growth factor (12.5 ng/ml), 0.1 μM hydrocortisone, 0.01 μM sodium selenite, 0.1 μM retinoic acid, and 5% fetal bovine serum (Hyclone, Logan, Utah). At the end of the 24 hour incubation period, the spent media (the pretreatment sample) were collected, and the labeled cultures were washed twice with Dulbecco's PBS without Ca^++ and Mg^++ and then chased for 30 min in the presence of varying concentrations of poly-L-arginine (PLA, average MW 8,900) or poly-L-lysine (PLL, average MW 9,600). The chased media are referred to as the treatment samples. PLA and PLL were prepared in phosphate buffered saline (PBS), and the final pH's of these solutions were adjusted to be between 7.0 and 7.4. […] J. Resp. Cell Mol. Biol. 1: 137-143. At the end of the chase period, floating cells and cell debris were removed from the treatment samples by centrifigation at 12,000×g for 5 min. Fifty μl of the treatment samples were used for lactate dehydrogenase (LDH) assay (as discussed in Example 2 below) and the remaining samples were stored at −80° C. until assayed for their ^3H-mucin contents. High molecular weight glycoconjugates that were excluded after Sepharose CL-4B (Phainacia, Upsaala, Sweden) gel-filtration column chromatography and that were resistant to hyaluronidase, were defined as mucins, as described in Kim et al., 1985, J. Biol. Chem. 260:4021:4027. Mucins were measured by column chromatography as described in Kim et al, 1987, Proc. Natl. Acad. Sci. USA 84:9304-9308.

HTSE cells [3] = experiment: Cell exfoliation (floating cell count) in HTSE cultures; format: cell-based, Golden Syrian hamsters; settings: 10^-5 M; 24 hr post-treatment period; control 1992±132
Description: (§1) The effects of PLA or PLL on cell toxicity were also examined. The possible cytotoxicity of these polypeptides was assessed by four different methods: (a) LDH release, (b) ^51Cr release, (c) cell exfoliation, and (d) light microscopy. Cultures were treated with either PLA or PLL for 30 min, and then assayed as follows. An LDH assay was conducted using an LDH assay kit (LD-L10) (Sigma Chemical Co., St. Louis, Mo.), according to the manufacturer's directions. A 51Cr release assay was carried out as described in Kim et al., 1987, Proc. Natl. Acad. Sci. USA 84:9304-9308. The degree of exfoliation was measured by counting the floating cells at the end of the 24 hr post-treatment period. Floating cells were collected as a pellet from spent media by centrifugation at 200×g for 5 min at 4° C. The resulting cell pellet was suspended in a solution containing 0.05% Trypsin and 0.02% EDTA, and the suspension was incubated at 37° C. for 10 min before dissociated cells were counted using a hemacytometer.

HTSE cells [4] = experiment: 51Cr release assay in HTSE cells; format: cell-based, Golden Syrian hamsters; settings: 10^-5 M, 30 min; control 100±4%
Description: as §1

HTSE cells [5] = experiment: LDH release cytotoxicity assay in HTSE cells; format: cell-based, Golden Syrian hamsters; settings: for LDH release: 10^-5 M, 30 min treatment; for LDH release / cytotoxicity as determined by LDH release: HTSE cells; for LDH release across concentration groups: varying concentrations, 30 min, HTSE cells (FIG. 2); for cytotoxicity as determined by LDH release: techniques of examples 1-4
Description: as §1

HTSE cells [6] = experiment: ATP-induced mucin release in HTSE cells; format: cell-based, Golden Syrian hamsters; settings: 10^-5 M peptide with 2×10^-4 M ATP, 30 min chase
Description: The effects of poly-L-arginine (PLA) and poly-L-lysine (PLL) on mucin release from cultured airway goblet cells were evaluated. Tracheas obtained from 7-8 week old male Golden Syrian hamsters (Harlan Sprague Dawley, Indianapolis, Ind.) were used to establish a hamster tracheal surface epithelial, (HTSE) cell culture. HTSE cells were harvested and cultured on a thick collagen gel as described in Kim et al., 1989, Exp. Lung Res. 15: 299-314. Mucins were metabolically radiolabeled by incubating confluent cultures (24 well plate, 5×10^5 cells/well) with 0.2 ml/well of a “complete” medium containing 10 μCi/ml of ^3H-glucosamine for 24 hours as described in Kim et al., 1989, Am. J. Resp. Cell Mol. Biol. 1: 137-143. The “complete” medium was prepared by supplementing a mixture of Medium 199/Dulbecco's modified Eagle's medium (DME) (1:1) with insulin (5 μg/ml), transferrin (5 μg/ml), epidermal growth factor (12.5 ng/ml), 0.1 μM hydrocortisone, 0.01 μM sodium selenite, 0.1 μM retinoic acid, and 5% fetal bovine serum (Hyclone, Logan, Utah). […] Mucins were measured by column chromatography as described in Kim et al, 1987, Proc. Natl. Acad. Sci. USA 84:9304-9308. […]

HTSE cells [7] = experiment: Light microscopy of treated HTSE cells; format: cell-based, Golden Syrian hamsters; settings: end of 30 min treatment or end of 24 hr post-treatment period
Description: as §1

For “poly-L-arginine [PLA (average MW 10,800)]”, the “goblet cell metaplasia induced by SO2” value [1] was “prevented by PLA in a dose-dependent fashion”.
“poly-L-lysine [Low molecular weight PLL (5 residues)]” was tested, and the “effect on mucin release/secretion (dose dependence)” value (“effect on mucin release/secretion” for short) [2] was “did not show any significant inhibition”.
In the case of poly-L-lysine [PLL], the “number of floating cells/well” value (HTSE cells [3]) is reported as 1920±70 cells/well, the 51Cr release (HTSE cells [4]) is reported as 103±10% and the “inhibitory effect on mucin release after LMWH pretreatment” value [2] is reported as “completely blocked”. The “"inhibition" of released mucins” value [2] was 87%, the “effect on mucin release, column-purified versus not column purified” value [2] was “no significant difference” and the “effect on mucin release/secretion” value [2] was “dose-dependent decrease”. The LDH release (HTSE cells [5]) was “no significant increases”, the “LDH release across concentration groups” value (HTSE cells [5]) was “no significant difference” and the “stimulatory effect of ATP on mucin release” value (HTSE cells [6]) was “completely blocked”. For the same substance, the “microscopic difference between control and treated cells” value (HTSE cells [7]) was “no apparent microscopic difference”.
“poly-L-lysine [Low molecular weight PLL (20 residues)]” was tested, and the “effect on mucin release/secretion” value [2] was “inhibited mucin secretion in a dose dependent fashion” and the “cytotoxicity as determined by LDH release” value (“cytotoxicity as determined” for short) (HTSE cells [5]) was “without any evidence of cytotoxicity”.
For “poly-L-lysine [High molecular weight PLL]”, the “effect on mucin release/secretion” value [2] was “inhibited mucin secretion in a dose-dependent fashion” and the “cytotoxicity as determined” value (HTSE cells [5]) was “associated with cytotoxicity”.
poly-L-arginine [PLA] was tested, and the “number of floating cells/well” value (HTSE cells [3]) was 2154±84 cells/well, the 51Cr release (HTSE cells [4]) was 102±11% and the “inhibitory effect on mucin release after LMWH pretreatment” value [2] was “completely blocked”. The “"inhibition" of released mucins” value [2] was 85%, the “effect on mucin release, column-purified versus not column purified” value [2] was “no significant difference” and the “effect on mucin release/secretion” value [2] was “dose-dependent decrease”. The LDH release (HTSE cells [5]) was “no significant increases”, the “LDH release across concentration groups” value (HTSE cells [5]) was “no significant difference” and the “stimulatory effect of ATP on mucin release” value (HTSE cells [6]) was “completely blocked”. For the same substance, the “microscopic difference between control and treated cells” value (HTSE cells [7]) was “no apparent microscopic difference”.
“poly-L-arginine [High molecular weight PLA]” was tested, and the “effect on mucin release/secretion” value [2] was “inhibited mucin secretion in a dose-dependent fashion” and the “cytotoxicity as determined” value (HTSE cells [5]) was “associated with cytotoxicity”.
In the case of “poly-L-arginine [Low molecular weight PLA (20 residues)]”, the “effect on mucin release/secretion” value [2] is reported as “inhibited mucin secretion in a dose dependent fashion” and the “cytotoxicity as determined” value (HTSE cells [5]) is reported as “without any evidence of cytotoxicity”.
For “poly-L-lysine [Low molecular weight PLL (14 residues)]”, the “effect on mucin release/secretion” value [2] was “inhibited mucin secretion in a dose dependent fashion” and the “cytotoxicity as determined” value (HTSE cells [5]) was “without any evidence of cytotoxicity”.
In the case of poly-L-arginine [PLA (5 residues)], the “effect on mucin release/secretion” value [2] is reported as “did not show any significant inhibition”.
With “poly-L-arginine [Low molecular weight PLA (14 residues)]” the “effect on mucin release/secretion” value [2] was “inhibited mucin secretion in a dose dependent fashion” and the “cytotoxicity as determined” value (HTSE cells [5]) was “without any evidence of cytotoxicity”.
